Measurements published in patent US12239643B2, “Therapeutic agent for inflammatory diseases, autoimmune diseases, fibrotic diseases, and cancer diseases” (MEIJI SEIKA PHARMA CO., LTD., priority 2018, dated 2025).

These compounds were tested on PDE4 (assay: Evaluation of PDE4 inhibitory activity, scintillation proximity assay). Settings: scintillation proximity assay; class symbols of Evaluation 1; read-out: PDE4 Inhibitory Activity (concentration for the inhibition rate of 50%, IC50), Evaluation 1.
Format: biochemical
How it was run: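 IC50 was derived from inhibition curves, referenced to an enzyme-free blank and a DMSO-only control. Compound, PDE4 preparation and tritiated cAMP reacted 120 min at RT in Tris-HCl buffer (pH 7.4) with MgCl2, EGTA and BSA; YSi-SPA beads with ZnSO4 bound product before scintillation counting.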
In the case of CC(=O)c1cc(-c2nccs2)c2oc(N3CC4CCC(C3)N4)nc2c1C(F)(F)F [Example 179, 1-(2-(3,8-Diazabicyclo[3.2.1]octan-3-yl)-7-(thiazol-2-yl)-4-(trifluoromethyl)benzo[d]oxazol-5-yl)ethan-1-one], the IC50 is reported as < 100 nM. For FC(F)(F)c1cc(-c2nccs2)c2oc(N3CC4CCC(C3)N4)nc2c1 [Example 51, 2-(3,8-Diazabicyclo[3.2.1]octan-3-yl)-7-(thiazol-2-yl)-5-(trifluoromethyl)benzo[d]oxazole], the IC50 was < 100 nM. For CC(=O)c1cc(-c2nccs2)c2oc(N3CC4CC(C3)N4)nc2c1C(F)(F)F [Example 180, 1-(2-(3,6-Diazabicyclo[3.1.1]heptan-3-yl)-7-(thiazol-2-yl)-4-(trifluoromethyl)benzo[d]oxazol-5-yl)ethan-1-one], the IC50 was < 100 nM. For C[S+]([O-])c1cc(-c2nccs2)c2oc(N3CC4CCC(C3)N4)nc2c1 (centres unmarked) [Example 42, 2-(3,8-Diazabicyclo[3.2.1]octan-3-yl)-5-(methylsulfinyl)-7-(thiazol-2-yl)benzo[d]oxazole], the IC50 was < 100 nM. For CC(C)Oc1cc(-c2nccs2)c2oc(N3CC4CCC(C3)N4)nc2c1 [Example 68, 2-(3,8-Diazabicyclo[3.2.1]octan-3-yl)-5-isopropoxy-7-(thiazol-2-yl)benzo[d]oxazole], the IC50 was < 100 nM. For FC(F)(F)c1cc(-c2nccs2)c2oc(N3CC4CCCC(C3)N4)nc2c1 [Example 53, 2-(3,9-Diazabicyclo[3.3.1]nonan-3-yl)-7-(thiazol-2-yl)-5-(trifluoromethyl)benzo[d]oxazole], the IC50 was < 100 nM.

Same assay, conditions: scintillation proximity assay; read-out: PDE4 Inhibitory Activity (Evaluation 1; concentration for the inhibition rate of 50%)
In the case of CCOC(=O)c1cc(-c2nccs2)c2oc(N3CC4CCCC(C3)N4)nc2c1OC(F)(F)F [Example 188, Ethyl 2-(3,9-diazabicyclo[3.3.1]nonan-3-yl)-7-(thiazol-2-yl)-4-(trifluoromethoxy)benzo[d]oxazole-5-carboxylate], the IC50 is reported as < 100 nM. For CC(O)c1cc(-c2nccs2)c2oc(N3CC4CC(C3)N4)nc2c1C(F)(F)F (centres unmarked) [Example 182, 1-(2-(3,6-Diazabicyclo[3.1.1]heptan-3-yl)-7-(thiazol-2-yl)-4-(trifluoromethyl)benzo[d]oxazol-5-yl)ethan-1-ol], the IC50 was < 100 nM. O=C(c1cc(-c2nccs2)c2oc(N3CC4CCC(C3)N4)nc2c1OC(F)(F)F)N1CCC1 [Example 192, (2-(3,8-Diazabicyclo[3.2.1]octan-3-yl)-7-(thiazol-2-yl)-4-(trifluoromethoxy)benzo[d]oxazol-5-yl)(azetidin-1-yl)methanone] was tested, and the IC50 was < 100 nM. In the case of COC(C)c1cc(-c2nccs2)c2oc(N3CC4CCC(C3)N4)nc2c1C(F)(F)F (centres unmarked) [Example 184, 2-(3,8-Diazabicyclo[3.2.1]octan-3-yl)-5-(1-methoxyethyl)-7-(thiazol-2-yl)-4-(trifluoromethyl)benzo[d]oxazole], the IC50 is reported as < 100 nM. CC(C)C(O)c1cc(-c2nccs2)c2oc(N3CC4CCC(C3)N4)nc2c1OC(F)(F)F (centres unmarked) [Example 205, 1-(2-(3,8-Diazabicyclo[3.2.1]octan-3-yl)-7-(thiazol-2-yl)-4-(trifluoromethoxy)benzo[d]oxazol-5-yl)-2-methylpropan-1-ol] was tested, and the IC50 was < 100 nM. With O=C(NCc1ccccc1)c1ccc(-c2nccs2)c2oc(N3CC4CC(C3)N4)nc12 [Example 361, N-benzyl-2-(3,6-diazabicyclo[3.1.1]heptan-3-yl)-7-(thiazol-2-yl)benzo[d]oxazole-4-carboxamide] the IC50 was < 100 nM. With c1csc(-c2ccc(N3CCCC3)c3nc(N4CC5CC(C4)N5)oc23)n1 [Example 415, 2-(3,6-Diazabicyclo[3.1.1]heptan-3-yl)-4-(pyrrolidin-1-yl)-7-(thiazol-2-yl)benzo[d]oxazole] the IC50 was < 100 nM. COC(C)c1cc(-c2nccs2)c2oc(N3CC4CC(C3)N4)nc2c1OC(F)(F)F (centres unmarked) [Example 211, 2-(3,6-Diazabicyclo[3.1.1]heptan-3-yl)-5-(1-methoxyethyl)-7-(thiazol-2-yl)-4-(trifluoromethoxy)benzo[d]oxazole] was tested, and the IC50 was < 100 nM.
